Calls of active or inactive are those of the source. Rule as the data show it: actives have a measured IC50 and inactives only a lower limit.
target: Envelope glycoprotein gp160 (Human immunodeficiency virus 1, UniProt Q6QLK5); assay: cell-free HIV fusion peptide-binding blockers – biochemical, uHTS, fluorescence dequenching, […] (AID 1986)
Sequence (Q6QLK5 whole entry, the tested form may be a part): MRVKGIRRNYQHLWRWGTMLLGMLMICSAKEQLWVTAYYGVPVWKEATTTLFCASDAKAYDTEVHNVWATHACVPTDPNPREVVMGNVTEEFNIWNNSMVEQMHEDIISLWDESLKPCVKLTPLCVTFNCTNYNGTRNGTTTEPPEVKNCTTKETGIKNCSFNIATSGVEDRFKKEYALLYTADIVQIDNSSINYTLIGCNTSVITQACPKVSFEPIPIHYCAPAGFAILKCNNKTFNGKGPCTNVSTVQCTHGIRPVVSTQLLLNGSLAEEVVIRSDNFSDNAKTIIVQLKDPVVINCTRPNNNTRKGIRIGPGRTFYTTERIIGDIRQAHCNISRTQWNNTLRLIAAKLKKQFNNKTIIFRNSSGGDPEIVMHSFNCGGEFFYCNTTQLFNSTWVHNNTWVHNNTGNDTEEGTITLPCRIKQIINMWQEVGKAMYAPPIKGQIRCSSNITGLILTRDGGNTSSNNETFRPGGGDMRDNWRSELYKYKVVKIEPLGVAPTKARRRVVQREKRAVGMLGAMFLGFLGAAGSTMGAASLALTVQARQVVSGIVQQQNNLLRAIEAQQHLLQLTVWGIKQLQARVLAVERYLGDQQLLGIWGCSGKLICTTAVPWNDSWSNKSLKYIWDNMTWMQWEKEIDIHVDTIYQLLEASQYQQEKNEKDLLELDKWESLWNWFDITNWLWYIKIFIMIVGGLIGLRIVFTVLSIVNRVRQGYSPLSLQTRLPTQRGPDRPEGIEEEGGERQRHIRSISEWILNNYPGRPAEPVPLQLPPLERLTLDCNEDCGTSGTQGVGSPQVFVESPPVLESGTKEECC

SMILES	IC50
CC(C)c1ccc(OCC(=O)Nc2cccc(C(=O)Nc3ccccc3C(=O)O)c2)cc1	16.9 µM (active)
O=C(O)c1ccc(Cl)c(S(=O)(=O)Nc2ccccc2C(=O)Nc2ccc(Cl)cc2)c1	17.9 µM (active)
Cc1cccc(OCC(=O)Nc2ccc(C(=O)Nc3ccccc3C(=O)O)cc2)c1C	28.3 µM (active)
COc1cc(/C=C2\SC(=O)N(Cc3ccc(F)cc3)C2=O)cc([N+](=O)[O-])c1O	19.7 µM (active)
C/C(=N\Nc1ccc(C(=O)O)cc1)c1ccc2c(c1)Nc1ccccc1S2	15.4 µM (active)
